Assay results reported in US20120115742A1, “METHODS FOR IDENTIFICATION” (Cambridge Enterprise Limited, priority 2009, published 2012).

Experiments:
[1] = molecular target: T1, sstr2 (Homo sapiens, UniProt P30874); test: [3H]-BN83250 equilibrium binding to THP-1 cells (Scatchard/competition); settings: THP-1 cells, 2 hours at 4° C.; read-out: affinity (Scatchard analysis)
T1 construct: with 1×10^6 THP-1 cells in Gey's Balanced Salt Solution, 10 nM [^3H]-BN83250; endogenous in cells; host or cells: THP-1 cells (intact cells, 4 °C)
T1 sequence (P30874 whole entry): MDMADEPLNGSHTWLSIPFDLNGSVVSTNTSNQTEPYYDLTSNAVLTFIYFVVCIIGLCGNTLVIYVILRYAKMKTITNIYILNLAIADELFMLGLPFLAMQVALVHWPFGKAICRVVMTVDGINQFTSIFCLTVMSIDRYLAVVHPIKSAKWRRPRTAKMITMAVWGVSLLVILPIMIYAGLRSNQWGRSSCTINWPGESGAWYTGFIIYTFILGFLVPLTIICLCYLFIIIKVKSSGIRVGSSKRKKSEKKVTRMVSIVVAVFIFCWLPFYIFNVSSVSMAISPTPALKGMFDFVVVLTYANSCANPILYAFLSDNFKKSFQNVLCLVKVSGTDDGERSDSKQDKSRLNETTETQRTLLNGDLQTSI
Description: Methods: [^3H]-BN83250 was synthesesized from (S,E)-3-(2′,2′-dimethyldodec-4′-enoylamino)-caprolactam by catalytic hydrogenation using tritium gas over a palladium catalyst (CRB Ltd, Cleveland, UK), yielding the tritiated product at a concentration of 270 μM in ethanol with a specific activity of 220Ci/mmol. The (S,E)-3-(2′,2′-dimethyldodec-4′-enoylamino)-caprolactam was prepared as follows: (S,S)-3-amino-caprolactam hydro-pyrrolidine-5-carboxylate (10 mmol) and Na2CO3 (30 mmol) in water (30 ml) were added to a solution of 2,2-dimethyl-dodec-4-enoyl chloride (10 mmol) in dichloromethane (30 ml) at ambient temperature and the reaction was stirred for 12 hours. The organic layer was then separated and the aqueous phase was extracted with additional dichloromethane (2×25 ml). The combined organic layers were dried over Na2CO3 and reduced in vacuo. The residue was purified by silica column chromatography (1:1 EtOAc:hexanes to EtOAc) to give (S,E)-3-(2′,2′-dimethyl-dodec-4′-enoyl)amino-caprolactam as a colourless oil (2.12 g, 63%). The radiolabelled compound was stored in the dark at 4° C. until required. Prior to use the specific activity was adjusted by addition of unlabelled BN83250.
For the analysis of binding, individual reactions were set up (in triplicate for each condition), with 1×10^6 THP-1 cells in Gey's Balanced Salt Solution, 10 nM [^3H]-BN83250 (at 50 Ci/mmol) and various concentrations of (S)-3(2′2′-dimethylpropionoylamino)-tetrahydropyridin-2-one (10 pM to 10 μM). Excess (100 μM) unlabelled BN83250 was used to determine the level of non-specific binding. After 2 hours at 4° C. (conditions previously shown to achieve equilibrium binding, and which prevent uptake of the radioligand that would result in an over-estimate of binding) excess label was washed away by centrifugation (3 washes with 5 ml of Gey's Balanced Salt Solution) and the bound radioactivity was determined by scintillation counting of the solubilised cell pellet.
Hits from this assay were confirmed using conventional Scatchard analysis, exactly as described in Example 4 above.

[2] = system: Jurkat-D3B cells; test: SDF-1α induced migration of Jurkat-D3B cells expressing sstr2; format: cell-based, human; settings: Jurkat-D3B versus parental Jurkat
Description: Methods: Total mRNA was prepared from Panc-1 cells (a human pancreas cell line which is well known to express high levels of sstr2) using the RNAqueous 4PCR kit (Ambion, Cat code #1914) in accordance with the manufacturer's instructions. The mRNA was then reverse transcribed (using the RETROscript kit; Ambio) to yield a cDNA preparation. A full length cDNA of the sstr2 gene was then obtained by PCR (using a Peltier PTC-200 thermal cycler using the following cycle times and conditions: 94° C. for 2 min, followed by 30 cycles of 94° C., for 30 sec, 55° C. for 30 sec, 72° C. for 1 min and finally 72° C. for 10 min), and isolated by preparative gel electrophoresis. The sequence of the sstr2 cDNA was confirmed by sequencing. The sstr2 cDNA was treated with EcoRI and Xhol to generate sticky ends, which allowed directional cloning into the polylinker of the plasmid pcDNA3.1+ (Invitrogen) followed by ligation ([…] ligation reactions were run with 400 T4 DNA ligase (New England Biolabs) and the maximal amounts of DNA with an insert:plasmid ratio of 3:1 in ligase buffer incubated overnight at 13° C.). […]
A number of individual cell lines were obtained in this way, which expressed significant levels of sstr2 on the cell surface, detected by flow cytometry using the human-sstr2 antibody (Sigma, 50694; see Example 3 for details of the flow cytometry protocol used). […]

With “(S)-3-(2′,2′-dimethyldodecanoyl)amino-caprolactam [BN83250]” the Kd [1] was about 80 nM and the “increase in BSCI sensitivity by ectopic expression of sstr2” value [2] was “more than 100 fold”.
